Laboratory results from article PMC6401629, “Lipid Nanoparticles-Encapsulated YF4: A Potential Therapeutic Oral Peptide Delivery System for Hypertension Treatment” (Frontiers in Pharmacology, 2019).
Residues, ends and D or L forms follow the SMILES beside them.

How the values were obtained:
[1] = Pharmacokinetics after a single gavage administration; format: in vivo; conditions: SD rats, single gavage 1.2 mg/kg, plasma, DAS 2.0, mean ± SD, n = 6
Excerpt: Six 8-week-old male SD rats with weight between 180 to 220 g were purchased from the Laboratory Animal Center of Sichuan University (Sichuan University, Chengdu, Sichuan, China). The animals were maintained under 12-hour dark and light cycles at 22℃ and free access to food and water. After a week of adaptation, these SD rats were admitted to experiments. Absorption of YF4 in SD rats following a single oral administration of YF4 was investigated. At the end of the experiment, the rats were sacrificed inside an isoflurane chamber to avoid unnecessary suffering. The experiments were approved and supervised by the State Key Laboratory of Biotherapy Animal Care and Use Committee (Sichuan University, Chengdu, Sichuan, China).
SD rats were used to investigate the […] of YF4. Rats were chosed randomly for oral administration of free YF4 at the dose of 1.2 mg/kg (n=6), respectively. Before the experiment, all rats were fasted for 12 h with free access to water. Each rat was administered an oral volume of 0.5 mL/100 g. Approximate 200 μL of blood samples were collected from the orbit into a heparin zed centrifuge tube before and at 0.083, 0.25, 0.5, 0.75, 1, 1.5, 2, 3, 4, 6, 8, 12 h post-dosing. All blood samples were centrifuged at 3500 rpm (4 ℃) for 10 min. The plasma samples were collected and stored at -20 ℃ until analyzed by Drug and Statistics 2.0 (DAS 2.0) (Mathematical Pharmacology Professional Committee of China, Shanghai, China).

[2] = tested on: spontaneously hypertensive rats (SHRs); assay: In vivo antihypertensive efficacy, tail-cuff blood pressure; design: species or system rat; conditions: single oral dose 5 mg/kg, 2 h after administration, n = 6
Excerpt: Twelve weeks old male spontaneously hypertensive rats (SHRs) with a circa weight between 250 and 320 g were purchased from Beijing Vital River Laboratory Animal Technology Co., Ltd. After a week of adaption, animals were admitted to experiments (six per group). […] The rats were free access to food and water. […] In this study, groups of rats were used for the oral administration of saline group, Captopril group vs. YF4 group, YF4 vs. YF4-NPs vs YF4-LNPs.
Simultaneously, the captopril and the saline water were used as the positive control and control group, respectively. SHRs were randomly divided into three groups (n = 6). Control group were treated with 0.9% saline water, and the other groups were treated with captopril (5 mg/kg) or the same dose of YF4 dissolved in saline water. All rats were administered at a single oral dose.
In YF4-LNPs pharmacodynamics study, the SHRs were randomly divided into three groups (n = 6). Control group were treated with 0.9% saline water, the other groups of SHRs were treated withYF4 and YF4-LNPs. All the groups of rats were given the same dose at 0.8 mg/kg body weight. Blood pressure was indirectly recorded as described above. […] All the SBP were measured for three times to get the average value at each time point.

| SMILES | Cmax [1] [ng/mL] | AUC(0-inf) ([1]; male, rat, po) [ng·h/mL] | CL/F ([1]; male, rat, po, read-out: CLz/F (converted)) [mL/min/kg] | MRT ([1]; male, rat, po, read-out: MRT(0-t)) [h] | half-life ([1]; male, rat, po, read-out: T1/2z (half-life) (converted)) [h] | blood pressure lowing (BPL) effect compared with saline group [2] [mmHg] |
| --- | --- | --- | --- | --- | --- | --- |
| CC(C)C[C@H](NC(=O)CNC(=O)[C@@H](N)Cc1ccc(O)cc1)C(=O)N[C@@H](Cc1ccccc1)C(=O)O [YF4, Tyr-Gly-Leu-Phe] (H-YGLF-OH) | 15470 ± 3050 | 45400 ± 9420 | 0.333 | 3.17 ± 0.68 | 2.91 ± 0.05 |  |
| C[C@H](CS)C(=O)N1CCC[C@H]1C(=O)O [captopril] |  |  |  |  |  | 23.0 |
